Test results from paper PMC4976316, “A pivotal role of vacuolar H^+-ATPase in regulation of lipid production in Phaeodactylum tricornutum” (Scientific Reports, 2016).

Target: T1, Vacuolar H^+-ATPase (V-ATPase) (Phaeodactylum tricornutum, UniProt B7G3I2+B7GCN4)
T1 construct: gene PHATRDRAFT_16442; native complex in microsomal membrane protein from algal cells, not purified; subunit genes not identified; with V-type proton ATPase subunit a; V-type proton ATPase catalytic subunit A; V-type proton ATPase subunit B; V-type proton ATPase subunit C; V-type proton ATPase subunit D; V-type proton ATPase subunit E; V-type proton ATPase subunit F; V-type proton ATPase subunit G; V-type proton ATPase subunit H; V-type proton ATPase subunit d
Assay: concanamycin A-sensitive ATPase activity (phosphate release) of microsomal membranes
Format: cell-based
Settings: 100 nM BFA1 added to the growing culture, enzyme assayed afterwards in microsomes; days-long treatment, indirect effects possible

`CO/C1=C\C(C)=C\[C@@H](C)[C@@H](O)[C@@H](C)C/C(C)=C/C=C/[C@H](OC)[C@@H]([C@@H](C)[C@@H](O)[C@H](C)[C@@]2(O)C[C@@H](O)[C@H](C)[C@@H](C(C)C)O2)OC1=O` [BFA1, bafilomycin A1] was tested, and the “% decrease of V-ATPase activity at 100 nM” value was ~ 66%.
